Earlier results as cited in patent publication US20080064711A1, “Composition for treating oral cavity and Mucousal infections” (J.P.M.E.D. LTD., priority 2002, published 2008).

Experiments:
[1] = system: human keratinocyte and fibroblast cultures; conditions: Ponec et al. J Pharm Sci 1990
[2] = system: Gram negative bacteria that tend to colonize the oral cavity; conditions: patients undergoing radiation therapy; Spijkervet et al., 1990

SMILES | Cytotoxicity to human keratinocyte and fibroblast cultures [1] | Effectiveness against Gram negative bacteria colonizing the oral cavity [2]
CCO [Ethanol] | cytotoxic | –
[H]/N=C(\N/C(=N/[H])NCCCCCCNC(=N)NC(=N)Nc1ccc(Cl)cc1)Nc1ccc(Cl)cc1 [chlorhexidine] | – | relatively ineffective
CN(C)C=O [dimethylformamide] | cytotoxic | –
C[S+](C)[O-] [dimethylsulfoxide] | cytotoxic | –
CC(O)CO (centres unmarked) [propylene glycol] | cytotoxic | –
